Experimental data published in paper PMC9147192, “Small Molecule Arranged Thermal Proximity Coaggregation (smarTPCA)—A Novel Approach to Characterize Protein–Protein Interactions in Living Cells by Similar Isothermal Dose–Responses” (International Journal of Molecular Sciences, 2022).

How the values were obtained:
ENDOG = target: T1, ENDOG (Homo sapiens, UniProt Q14249); assay: TPP-CCR in living HL-60 cells; type: cell-based
T1 construct: endogenous in cells; host or cells: HL-60 (ATCC CCL-240)
T1 sequence (Q14249 49-297): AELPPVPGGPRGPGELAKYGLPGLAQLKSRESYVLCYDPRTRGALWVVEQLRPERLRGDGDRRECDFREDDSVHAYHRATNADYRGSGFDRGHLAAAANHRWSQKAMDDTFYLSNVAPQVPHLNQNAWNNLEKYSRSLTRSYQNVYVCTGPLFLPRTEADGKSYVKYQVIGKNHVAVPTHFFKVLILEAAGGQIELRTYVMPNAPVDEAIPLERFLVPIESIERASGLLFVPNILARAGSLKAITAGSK

GANAB = target: T2, GANAB (Homo sapiens, UniProt Q14697); assay: TPP-CCR in living HL-60 cells; type: cell-based
T2 construct: endogenous in cells; host or cells: HL-60 (ATCC CCL-240)
T2 sequence (Q14697 29-944): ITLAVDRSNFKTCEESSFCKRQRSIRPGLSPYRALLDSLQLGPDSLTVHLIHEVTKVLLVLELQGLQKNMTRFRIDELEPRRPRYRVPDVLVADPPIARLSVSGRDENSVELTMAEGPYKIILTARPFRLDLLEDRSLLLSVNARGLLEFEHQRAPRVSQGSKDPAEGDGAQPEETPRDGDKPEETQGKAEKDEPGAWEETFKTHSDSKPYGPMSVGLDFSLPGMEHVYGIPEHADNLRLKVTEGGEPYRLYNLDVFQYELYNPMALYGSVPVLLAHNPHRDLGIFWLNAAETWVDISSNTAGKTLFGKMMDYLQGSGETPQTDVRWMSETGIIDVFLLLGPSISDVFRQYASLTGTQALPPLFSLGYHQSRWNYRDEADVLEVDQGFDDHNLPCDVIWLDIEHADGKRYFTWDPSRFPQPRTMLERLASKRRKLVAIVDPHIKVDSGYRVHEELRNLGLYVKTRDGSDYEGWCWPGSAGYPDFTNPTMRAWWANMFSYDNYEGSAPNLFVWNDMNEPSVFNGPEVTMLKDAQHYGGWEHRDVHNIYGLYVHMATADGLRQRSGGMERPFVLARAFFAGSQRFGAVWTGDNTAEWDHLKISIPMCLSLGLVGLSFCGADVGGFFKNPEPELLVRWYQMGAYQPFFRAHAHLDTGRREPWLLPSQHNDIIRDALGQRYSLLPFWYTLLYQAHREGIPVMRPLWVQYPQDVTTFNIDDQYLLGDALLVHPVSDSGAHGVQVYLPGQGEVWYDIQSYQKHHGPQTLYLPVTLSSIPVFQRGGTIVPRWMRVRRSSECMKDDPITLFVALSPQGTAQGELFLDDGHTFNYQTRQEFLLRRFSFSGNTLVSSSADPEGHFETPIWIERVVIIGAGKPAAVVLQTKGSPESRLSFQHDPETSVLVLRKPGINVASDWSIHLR

[1] = living HL-60 cells, […] °C, TMT-MS

What does the source list for `Cc1cnc(Nc2ccc(F)cc2Cl)nc1-c1c[nH]c(C(=O)N[C@H](CO)c2cccc(Cl)c2)c1` [ERK 11e]?
Hill slope (ENDOG; TPP-CCR, living cells, ENDOG): 0.40; Hill slope (ENDOG) (ENDOG; [1]): 0.40; EC50 (ENDOG; living HL-60 cells, […] °C, TMT-MS, read-out: pEC50 (ENDOG) (converted)): 2.75 nM; Hill slope (GANAB; TPP-CCR, living cells, GANAB): 1.81; Hill slope (GANAB) (GANAB; [1]): 1.81; EC50 (GANAB; living HL-60 cells, […] °C, TMT-MS, read-out: pEC50 (GANAB) (converted)): 5250 nM
